Test results published in PMC6958422 (Pharmaceuticals, 2019).
Read-outs that look alike come from different tables or passages of the source.

Assays:
hA3 AR = target: T1, hA3 AR (Homo sapiens, UniProt P0DMS8); assay: [125I]AB-MECA competition binding to hA3 CHO cell membranes; settings: for inhibition at 1 µM: percentage of inhibition at 1µM; for Ki: hA3 CHO cells, means ± SEM
T1 construct: expressed in transfected cells; host or cells: CHO cells
T1 sequence (P0DMS8 1-318): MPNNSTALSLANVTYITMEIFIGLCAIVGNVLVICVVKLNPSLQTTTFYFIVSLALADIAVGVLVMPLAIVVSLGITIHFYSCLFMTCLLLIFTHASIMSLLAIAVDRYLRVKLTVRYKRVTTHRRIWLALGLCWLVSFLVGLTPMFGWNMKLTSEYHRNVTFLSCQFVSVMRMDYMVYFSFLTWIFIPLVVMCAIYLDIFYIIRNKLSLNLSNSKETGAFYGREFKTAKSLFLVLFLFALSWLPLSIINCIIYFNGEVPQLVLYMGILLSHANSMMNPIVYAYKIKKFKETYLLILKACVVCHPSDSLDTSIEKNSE
Procedure: (§1) CHO cells transfected with hA1, hA2A, hA2B, and hA3 ARs were grown adherently and maintained in Dulbecco’s modified Eagle’s medium (Sigma-Aldrich, Milan, Italy) with nutrient mixture F12, containing 10% fetal calf serum, penicillin (100 U/mL), streptomycin (100 μg/mL), l-glutamine (2 mM) and geneticin (G418; 0.2 mg/mL) at 37°C in 5% CO2/95% air until the use in cAMP assays. For membrane preparation, the culture medium was removed, and the cells were washed with phosphate-buffered saline and scraped off T75 flasks in ice-cold hypotonic buffer (5 mM Tris HCl, 1 mM EDTA, pH 7.4). The cell suspension was homogenized with a Polytron, centrifuged for 30 min at 40000 g at 4°C, and the resulting membrane pellet was used for competition binding experiments.
(§2) All synthesized compounds have been tested for their affinity to hA1, hA2A, and hA3 ARs. Competition experiments to hA1 ARs were carried out incubating 1 nM [^3H]-8-cyclopentyl-1,3-dipropylxanthine ([^3H]-DPCPX) with membrane suspension (50 μg of protein/100 μL) and different concentrations of the examined compounds at 25°C for 90 min in 50 mM Tris HCl, pH 7.4. […] Inhibition experiments to hA2A ARs were performed incubating the radioligand [^3H]-ZM241385 (4-(2-[7-Amino-2-(2-furyl)[1,2,4]triazolo[2,3-a][1,3,5]triazin-5-ylamino]ethyl)phenol) (1 nM) with the membrane suspension (50 μg of protein/100 μL) and different concentrations of the examined compounds for 60 min at 4°C in 50 mM Tris HCl (pH 7.4), 10 mM MgCl2. Non-specific binding was determined in the presence of ZM241385 (1 μM) and was about 20% of the total binding. Competition binding experiments to A3 ARs were carried out incubating the membrane suspension (50 μg of protein/100 μL) with 0.5 nM [^125I]-N^6-(4-aminobenzyl)-N-methylcarboxamidoadenosine ([^125I]-ABMECA) in the presence of different concentration of the examined compounds for an incubation time of 120 min at 4°C in 50 mM Tris HCl (pH 7.4), 10 mM MgCl2, and 1 mM EDTA. Non-specific binding was defined as binding in the presence of 1μM ABMECA and was always < 10% of the total binding. Bound and free radioactivity were separated by filtering the assay mixture through Whatman GF/B glass fiber filters using a Brandel cell harvester (Brandel Instruments, Unterföhring, Germany). The filter bound radioactivity was counted by Packard Tri Carb 2810 TR scintillation counter (Perkin Elmer, Boston, MA, USA).
(§3) The protein concentration was determined according to a Bio-Rad method with bovine albumin as a standard reference. Inhibitory binding constant (Ki) values were calculated from those of IC50 according to Cheng & Prusoff equation Ki = IC50/(1+[C*]/KD*), where [C*] is the concentration of the radioligand and KD* its dissociation constant. Ki and IC50 values were calculated by non-linear regression analysis using the equation for a sigmoid concentration-response curve (Graph-PAD Prism, San Diego, CA, USA).

hA1 AR [1] = target: T2, hA1 AR (Homo sapiens, UniProt P30542); assay: Modulation of Forskolin-stimulated cAMP levels in hA1 CHO cells; format: cell-based; settings: Forskolin 5 µM; for EC50: means ± SEM of four experiments, read-out: EC50 (potency to increase Forskolin-stimulated cAMP levels, hA1 CHO cells); for Efficacy (modulation of Forskolin-stimulated cAMP, hA1 CHO cells): normalized to DPCPX (set at 100%)
T2 construct: expressed in transfected cells; host or cells: CHO cells
T2 sequence (P30542 1-326): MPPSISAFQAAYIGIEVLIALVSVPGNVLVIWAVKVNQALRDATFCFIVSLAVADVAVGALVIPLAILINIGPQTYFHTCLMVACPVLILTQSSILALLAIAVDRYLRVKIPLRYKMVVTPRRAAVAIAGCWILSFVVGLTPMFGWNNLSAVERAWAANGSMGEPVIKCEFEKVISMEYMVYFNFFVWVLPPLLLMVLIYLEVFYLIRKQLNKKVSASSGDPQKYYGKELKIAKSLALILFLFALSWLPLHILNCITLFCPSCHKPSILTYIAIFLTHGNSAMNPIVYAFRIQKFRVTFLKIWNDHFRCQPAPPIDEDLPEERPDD
Procedure: (§4) The amino-3,5-dicyanopyridines 1–20 were tested for their affinity at hA1, hA2A, and hA3 ARs, stably transfected in Chinese Hamster Ovary (CHO) cells, and were also studied as hA2B agonists by evaluating their stimulatory effect on cAMP production in CHO cells, stably expressing the hA2B AR.
For membrane preparation, the culture medium was removed, and the cells were washed with phosphate-buffered saline and scraped off T75 flasks in ice-cold hypotonic buffer (5 mM Tris HCl, 1 mM EDTA, pH 7.4). The cell suspension was homogenized with a Polytron, centrifuged for 30 min at 40000 g at 4°C, and the resulting membrane pellet was used for competition binding experiments.
CHO cells transfected with hAR subtypes were washed with phosphate-buffered saline, detached with trypsin and centrifuged for 10 min at 200 g. […] At the end of the experiments, plates were read with the Perkin Elmer EnSight Multimode Plate Reader.

hA2B AR [2] = target: T3, hA2B AR (Homo sapiens, UniProt P29275); assay: cAMP assay, stimulation of cAMP production in hA2B CHO cells (agonism); format: cell-based; settings: for Emax at 1 µM: CHO, compound at 1µM, in comparison with NECA (1µM = 100%), read-out: Efficacy hA2B (cAMP assays) (converted); for EC50: hA2B CHO cells, means ± SEM of four assays
T3 construct: expressed in transfected cells; host or cells: CHO cells
T3 sequence (P29275 1-332): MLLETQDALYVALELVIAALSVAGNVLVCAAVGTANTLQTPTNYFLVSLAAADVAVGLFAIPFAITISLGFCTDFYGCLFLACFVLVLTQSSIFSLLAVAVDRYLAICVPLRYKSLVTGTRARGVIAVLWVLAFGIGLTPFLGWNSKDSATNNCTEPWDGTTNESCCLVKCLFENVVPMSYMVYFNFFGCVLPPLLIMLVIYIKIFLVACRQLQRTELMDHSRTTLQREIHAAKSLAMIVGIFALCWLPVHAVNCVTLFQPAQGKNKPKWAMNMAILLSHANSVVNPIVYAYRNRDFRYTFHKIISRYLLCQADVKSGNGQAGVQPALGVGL
Procedure: as §4, §1
CHO cells transfected with hAR subtypes were washed with phosphate-buffered saline, detached with trypsin and centrifuged for 10 min at 200 g. Cells were seeded in 96-well white half-area microplate (Perkin Elmer, Boston, USA) in a stimulation buffer composed of Hank Balanced Salt Solution (Sigma-Aldrich, Milan, Italy), 5 mM HEPES, 0.5 mM Ro 20-1724, and 0.1% BSA. cAMP levels were then quantified by using the AlphaScreen cAMP Detection Kit (Perkin Elmer) following the manufacturer’s instructions. At the end of the experiments, plates were read with the Perkin Elmer EnSight Multimode Plate Reader.

hA1 AR [3] = target: T2, hA1 AR; assay: [3H]DPCPX competition binding to hA1 CHO cell membranes
Procedure: as §1, §2, §3

hA2A AR = target: T4, hA2A AR (Homo sapiens, UniProt P29274); assay: [3H]ZM241385 competition binding to hA2A CHO cell membranes; settings: for I% hA2A: percentage of inhibition at 1µM, [3H]ZM241385; for Ki: [3H]ZM241385, hA2A CHO cells, means ± SEM
T4 construct: expressed in transfected cells; host or cells: CHO cells
Procedure: as §1, §2, §3

hA2B AR [4] = target: T3, hA2B AR; settings: cited from earlier work
A2BAR = test system: A2BAR; parameters: method as in PMID 31132418; settings: rat CA1 hippocampus, cited from earlier work
[5] = at 1µM, in comparison with NECA (1µM = 100%)

T4 sequence (P29274 whole entry): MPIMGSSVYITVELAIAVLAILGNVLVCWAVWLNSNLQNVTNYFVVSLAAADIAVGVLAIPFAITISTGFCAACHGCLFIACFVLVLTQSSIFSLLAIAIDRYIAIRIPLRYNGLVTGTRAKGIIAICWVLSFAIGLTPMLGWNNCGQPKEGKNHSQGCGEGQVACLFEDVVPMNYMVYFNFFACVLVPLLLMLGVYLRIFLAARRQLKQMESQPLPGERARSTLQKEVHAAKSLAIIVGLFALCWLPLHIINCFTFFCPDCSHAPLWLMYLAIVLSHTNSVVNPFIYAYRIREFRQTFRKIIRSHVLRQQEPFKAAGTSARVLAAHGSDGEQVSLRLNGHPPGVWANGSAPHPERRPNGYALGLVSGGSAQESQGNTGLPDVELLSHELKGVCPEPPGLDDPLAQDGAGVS

SMILES | inhibition at 1 µM (hA3 AR) | EC50 (hA1 AR [1]) | Efficacy (modulation of Forskolin-stimulated cAMP, hA1 CHO cells) (hA1 AR [1]) | Emax at 1 µM (hA2B AR [2]) | EC50 (hA2B AR [2]) | Ki (hA1 AR [3]) | I% hA2A (hA2A AR) | melting point | further results
C=CCOc1ccc(-c2c(C#N)c(N)nc(SCc3ncc[nH]3)c2C#N)cc1 [Compound 3, 2-Amino-6-[(1H-imidazol-2-ylmethyl)sulfanyl]-4-[4-(prop-2-en-1-yloxy)phenyl]pyridine-3,5-dicarbonitrile] | 8% | 19.6 ± 1.7 nM | 39 ± 4% | 56% | 27 ± 3 nM | 16 ± 2 nM | 17% | – | –
CCOc1ccc(-c2c(C#N)c(N)nc(SCc3ncc[nH]3)c2C#N)cc1 [Compound 5, 2-(((1H-Imidazol-2-yl)methyl)thio)-6-amino-4-(4-ethoxyphenyl)pyridine-3,5-dicarbonitrile] | – | – | – | – | – | – | – | – | Efficacy hA2B (cAMP assays) (hA2B AR [4]; [5]): 62%
N#Cc1c(N)nc(SCc2ncc[nH]2)c(C#N)c1-c1ccc(F)cc1 [Compound 8, 2-Amino-4-(4-fluorophenyl)-6-[(1H-imidazol-2-ylmethyl)sulfanyl]pyridine-3,5-dicarbonitrile] | – | 1.34 ± 0.11 nM | 34 ± 3% | 76% | 18 ± 2 nM | 0.78 ± 0.08 nM | – | 223 to 225 °C (dec.) | Ki (hA3 AR): 410 ± 38 nM; Ki (hA2A AR): 139 ± 12 nM
CSc1ccc(-c2c(C#N)c(N)nc(SCc3ncc[nH]3)c2C#N)cc1 [Compound 11, 2-Amino-6-[(1H-imidazol-2-ylmethyl)sulfanyl]-4-[4-(methylsulfanyl)phenyl]pyridine-3,5-dicarbonitrile] | – | 8.87 ± 0.64 nM | 52 ± 4% | 30% | 36 ± 3 nM | 8.32 ± 0.78 nM | – | 257 to 259 °C (dec.) | Ki (hA3 AR): 388 ± 29 nM; Ki (hA2A AR): 227 ± 21 nM
N#Cc1c(N)nc(SCc2ncc[nH]2)c(C#N)c1-c1ccc(OCC2CC2)cc1 [Compound P453, 2-{[(1H-imidazol-2-yl)methyl]thio}-6-amino-4-[4-(cyclopropylmethoxy)phenyl]pyridine-3,5-dicarbonitrile] | – | – | – | – | – | – | – | – | Effect on PPF (paired pulse facilitation) (A2BAR): decreases PPF; Effect on A1AR-mediated fEPSP inhibition during OGD (A2BAR; two-minute oxygen and glucose deprivation insult): delays A1AR-mediated fEPSP inhibition; Efficacy hA2B (cAMP assays) (hA2B AR [4]; [5]): 70%
N#Cc1c(N)nc(SCc2ncc[nH]2)c(C#N)c1-c1ccccc1 [LUF5833, 2-amino-6-[(1H-imidazol-2-ylmethyl)sulfanyl]-4-phenylpyridine-3,5-dicarbonitrile] | – | – | – | – | – | – | – | – | Efficacy hA2B (cAMP assays) (hA2B AR [4]; in comparison with NECA): 81%

Second part, led by results:

inhibition at 1 µM (hA3 AR) | EC50 (hA1 AR [1]) | Efficacy (modulation of Forskolin-stimulated cAMP, hA1 CHO cells) (hA1 AR [1]) | Emax at 1 µM (hA2B AR [2]) | EC50 (hA2B AR [2]) | Ki (hA1 AR [3]) | I% hA2A (hA2A AR) | melting point | SMILES | further results
15% | – | – | 1% | > 1000 nM | – | 2% | 248 to 250 °C | COc1ccc(-c2c(C#N)c(N)nc(NCCO)c2C#N)cc1 [Compound 19, 2-Amino-6-[(2-hydroxyethyl)amino]-4-(4-methoxyphenyl)pyridine-3,5-dicarbonitrile] | I% hA1 (hA1 AR [3]; percentage of inhibition at 1µM, [3H]DPCPX): 14%
5% | – | – | 1% | > 1000 nM | 987 ± 81 nM | 1% | 218 to 220 °C | COC(=O)CSc1nc(N)c(C#N)c(-c2ccc(OC)cc2)c1C#N [Compound 20, Methyl{[6-amino-3,5-dicyano-4-(4-methoxyphenyl)pyridin-2-yl]sulfanyl}acetate] | –
– | – | 100 ± 9% | – | – | – | – | – | CCCn1c(=O)c2[nH]c(C3CCCC3)nc2n(CCC)c1=O [DPCPX, 8-Cyclopentyl-1,3-dipropylxanthine, reference compound] | –
